{"source": "patent US7105521B2", "about": "“Eugenosedin-A based pharmacoligical agents” (Syn-Tech Chem & Pharm Co., Ltd., priority 2003, dated 2006)", "key": {"[1]": {"test_system": "α1-adrenoceptors", "experiment": "Noradrenaline-induced contraction of isolated rat thoracic aorta", "format": "cell-based", "settings": "10^−8, 10^−7, 10^−6 M", "excerpt": "Isolation of rat thoracic aorta. Rat thoracic aorta was removed, cleaned of adhering fat and connective tissue and cut into 3–4 mm wide transverse rings."}, "[2]": {"experiment": "Survival rate after LPS", "format": "in vivo, ddk mice", "settings": "pretreatment 0.5, 1, 5 mg kg^−1 i.p., LPS 60 mg kg^−1"}}}
{"compound": "CC=Cc1ccc(OCC(O)CN2CCN(c3ccccc3Cl)CC2)c(OC)c1", "note": "(stereo not drawn) [eugenosedin-A]", "values": [{"measurement": "cumulative noradrenaline-induced contractile activities", "setting": "[1]", "result": "competitively inhibited"}, {"measurement": "survival rate after LPS", "setting": "[2]; at 12 hrs", "result": "significantly increased"}, {"measurement": "time of LPS-induced death", "setting": "[2]", "result": 36, "unit": "h"}]}
